This note sets out measurements from ChEMBL document CHEMBL1201862, “PubChem BioAssay data set” (2004).

The AC50 is the concentration giving half of the maximal activity seen. As a reminder, the IC50 is the concentration that gives 50% inhibition. Broadly, the Ki is a measure of affinity in units of concentration, obtained from inhibition or displacement.

Common to all, as to type: functional
In assay [1] the target is T1, Replicative DNA helicase DnaB (Mycobacterium tuberculosis, UniProt P9WMR3).
T1 sequence (P9WMR3 whole entry): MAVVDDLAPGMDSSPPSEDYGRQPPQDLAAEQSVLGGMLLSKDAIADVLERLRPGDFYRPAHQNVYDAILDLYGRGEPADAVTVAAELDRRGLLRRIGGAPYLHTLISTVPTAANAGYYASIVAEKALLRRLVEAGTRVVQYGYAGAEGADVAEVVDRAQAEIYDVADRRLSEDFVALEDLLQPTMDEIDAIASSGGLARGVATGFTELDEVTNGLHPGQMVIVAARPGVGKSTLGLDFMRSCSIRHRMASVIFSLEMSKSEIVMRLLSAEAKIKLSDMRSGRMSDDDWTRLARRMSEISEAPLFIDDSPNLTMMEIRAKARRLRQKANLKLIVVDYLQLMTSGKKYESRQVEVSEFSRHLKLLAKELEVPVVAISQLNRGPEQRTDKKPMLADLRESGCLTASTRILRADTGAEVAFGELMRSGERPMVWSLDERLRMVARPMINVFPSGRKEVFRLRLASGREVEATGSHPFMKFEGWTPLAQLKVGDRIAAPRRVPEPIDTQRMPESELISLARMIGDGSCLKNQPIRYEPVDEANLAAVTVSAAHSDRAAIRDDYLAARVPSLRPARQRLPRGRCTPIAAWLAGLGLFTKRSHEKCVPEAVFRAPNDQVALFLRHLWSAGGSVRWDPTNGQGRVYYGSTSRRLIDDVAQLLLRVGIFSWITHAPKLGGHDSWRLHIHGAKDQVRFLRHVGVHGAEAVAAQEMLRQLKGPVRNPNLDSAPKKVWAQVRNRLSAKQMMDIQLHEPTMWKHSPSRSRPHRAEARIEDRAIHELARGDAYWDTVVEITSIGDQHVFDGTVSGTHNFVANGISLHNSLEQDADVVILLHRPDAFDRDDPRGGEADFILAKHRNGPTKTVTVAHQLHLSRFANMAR
The assay is described as follows: DnaB intein splicing inhibitors, dose response, biochemical, cell-free fluorescence (AID 449749).

Assay [2] concerns the target T2, Alkaline phosphatase, tissue-nonspecific isozyme (Homo sapiens, UniProt P05186).
T2 sequence (P05186 whole entry): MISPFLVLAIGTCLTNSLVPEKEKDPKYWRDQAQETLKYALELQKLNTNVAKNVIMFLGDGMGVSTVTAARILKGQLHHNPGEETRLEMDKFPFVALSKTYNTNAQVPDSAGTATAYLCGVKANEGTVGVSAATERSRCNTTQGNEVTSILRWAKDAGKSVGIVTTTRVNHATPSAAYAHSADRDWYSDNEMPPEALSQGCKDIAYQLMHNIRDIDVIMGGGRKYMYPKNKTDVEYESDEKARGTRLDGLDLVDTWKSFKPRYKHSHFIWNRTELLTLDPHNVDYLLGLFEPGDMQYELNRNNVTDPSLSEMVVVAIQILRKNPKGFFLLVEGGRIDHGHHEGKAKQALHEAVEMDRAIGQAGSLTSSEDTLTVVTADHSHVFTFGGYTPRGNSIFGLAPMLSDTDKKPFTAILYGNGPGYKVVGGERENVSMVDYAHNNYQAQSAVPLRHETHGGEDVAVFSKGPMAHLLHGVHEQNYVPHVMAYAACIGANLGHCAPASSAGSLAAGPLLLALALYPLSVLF
Put plainly: TNAP enzyme inhibition by screening hits, dose response, selectivity assay for mouse IAP inhibitor project, biochemical, human TNAP, uHTS hits (AID 488906).

Assay [3] concerns the target Serine/threonine-protein kinase Chk1 (Homo sapiens, UniProt O14757).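 Further: measured as one member of a kinome-wide kinase profiling panel.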
Another assay addresses Activin receptor type-1 (Homo sapiens, UniProt Q04771). Put plainly: Navigating the Kinome. Panel member name: ACVR1.

Calls of active or inactive are those of the source.

Serine/threonine-protein kinase Chk1, sequence (O14757 whole entry): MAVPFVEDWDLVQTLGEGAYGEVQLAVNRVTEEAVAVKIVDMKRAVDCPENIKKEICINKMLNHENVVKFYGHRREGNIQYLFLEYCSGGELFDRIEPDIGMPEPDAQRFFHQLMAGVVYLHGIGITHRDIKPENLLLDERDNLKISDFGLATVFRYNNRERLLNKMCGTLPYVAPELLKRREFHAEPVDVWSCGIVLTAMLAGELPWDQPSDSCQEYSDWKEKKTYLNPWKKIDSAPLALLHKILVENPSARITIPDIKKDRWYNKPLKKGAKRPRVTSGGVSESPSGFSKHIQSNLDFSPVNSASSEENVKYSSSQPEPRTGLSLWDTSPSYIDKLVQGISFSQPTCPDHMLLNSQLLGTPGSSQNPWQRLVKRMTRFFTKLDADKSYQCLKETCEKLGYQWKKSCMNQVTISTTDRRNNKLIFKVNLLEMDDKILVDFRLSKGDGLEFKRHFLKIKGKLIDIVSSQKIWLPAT
Activin receptor type-1, sequence (Q04771 whole entry): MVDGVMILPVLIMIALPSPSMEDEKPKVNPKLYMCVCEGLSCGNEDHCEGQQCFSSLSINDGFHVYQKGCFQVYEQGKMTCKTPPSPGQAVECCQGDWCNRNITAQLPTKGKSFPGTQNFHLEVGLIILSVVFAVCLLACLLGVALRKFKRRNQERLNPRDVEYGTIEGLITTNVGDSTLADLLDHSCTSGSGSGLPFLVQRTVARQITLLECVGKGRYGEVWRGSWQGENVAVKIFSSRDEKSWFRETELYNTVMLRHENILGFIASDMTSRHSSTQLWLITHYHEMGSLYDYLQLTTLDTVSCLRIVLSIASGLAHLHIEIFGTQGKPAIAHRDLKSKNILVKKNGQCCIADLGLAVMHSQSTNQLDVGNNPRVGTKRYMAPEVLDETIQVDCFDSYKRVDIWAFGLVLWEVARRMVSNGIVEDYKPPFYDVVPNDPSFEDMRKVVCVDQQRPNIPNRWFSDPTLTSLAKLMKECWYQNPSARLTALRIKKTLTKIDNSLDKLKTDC

With `Cc1ccc(C(=O)OCn2ncc(Cl)c(Cl)c2=O)cc1`, in assay [1], the AC50 is 3.66 µM (active).

Take `O=C(O)CC(C(=O)O)N1C(=O)/C(=C/C=C/c2ccco2)SC1=S` (centres undefined): the IC50 in assay [2] is 91.8 µM (active).

With `Cc1ccc(-c2cc(-c3cc(Br)ccc3O)[nH]c(=O)c2C#N)s1`, the Ki in assay [3] was > 3.16 µM (inactive); at Activin receptor type-1, > 3.98 µM (inactive).
